Results taken from patent US20240109917A1 (ACTELION PHARMACEUTICALS LTD, priority 2020, published 2024).

How the values were obtained:
[1] = target: His6-TEV-PDGFRβ (557-1016) (Homo sapiens (Human), UniProt P09619); assay: PDGFRβ HTRF Assay; assay type: biochemical; settings: read-out: PDGFR HTRF IC50
How it was run: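 HTRF KinEASE-TK readout (665/620 nm ratio) of TK-biotin substrate phosphorylation by His-tagged PDGFRβ kinase domain. Enzyme and inhibitor preincubated 30 min, then ATP/substrate added for 3 h at room temperature before 60 min EDTA quench/detection.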

[2] = target: Tb-labeled inactive PDGFRβ (Homo sapiens (Human), UniProt P09619); assay: PDGFRβ LanthaScreen Assay; assay type: binding; settings: read-out: PDGFR Lantha IC50
VEGFR2, unphosphorylated = VEGFR2, unphosphorylated (Homo sapiens (Human), UniProt P35968); assay: VEGFR ADP GLO Assay; assay type: biochemical
VEGFR2, unphosphorylated, sequence (P35968 20-1356): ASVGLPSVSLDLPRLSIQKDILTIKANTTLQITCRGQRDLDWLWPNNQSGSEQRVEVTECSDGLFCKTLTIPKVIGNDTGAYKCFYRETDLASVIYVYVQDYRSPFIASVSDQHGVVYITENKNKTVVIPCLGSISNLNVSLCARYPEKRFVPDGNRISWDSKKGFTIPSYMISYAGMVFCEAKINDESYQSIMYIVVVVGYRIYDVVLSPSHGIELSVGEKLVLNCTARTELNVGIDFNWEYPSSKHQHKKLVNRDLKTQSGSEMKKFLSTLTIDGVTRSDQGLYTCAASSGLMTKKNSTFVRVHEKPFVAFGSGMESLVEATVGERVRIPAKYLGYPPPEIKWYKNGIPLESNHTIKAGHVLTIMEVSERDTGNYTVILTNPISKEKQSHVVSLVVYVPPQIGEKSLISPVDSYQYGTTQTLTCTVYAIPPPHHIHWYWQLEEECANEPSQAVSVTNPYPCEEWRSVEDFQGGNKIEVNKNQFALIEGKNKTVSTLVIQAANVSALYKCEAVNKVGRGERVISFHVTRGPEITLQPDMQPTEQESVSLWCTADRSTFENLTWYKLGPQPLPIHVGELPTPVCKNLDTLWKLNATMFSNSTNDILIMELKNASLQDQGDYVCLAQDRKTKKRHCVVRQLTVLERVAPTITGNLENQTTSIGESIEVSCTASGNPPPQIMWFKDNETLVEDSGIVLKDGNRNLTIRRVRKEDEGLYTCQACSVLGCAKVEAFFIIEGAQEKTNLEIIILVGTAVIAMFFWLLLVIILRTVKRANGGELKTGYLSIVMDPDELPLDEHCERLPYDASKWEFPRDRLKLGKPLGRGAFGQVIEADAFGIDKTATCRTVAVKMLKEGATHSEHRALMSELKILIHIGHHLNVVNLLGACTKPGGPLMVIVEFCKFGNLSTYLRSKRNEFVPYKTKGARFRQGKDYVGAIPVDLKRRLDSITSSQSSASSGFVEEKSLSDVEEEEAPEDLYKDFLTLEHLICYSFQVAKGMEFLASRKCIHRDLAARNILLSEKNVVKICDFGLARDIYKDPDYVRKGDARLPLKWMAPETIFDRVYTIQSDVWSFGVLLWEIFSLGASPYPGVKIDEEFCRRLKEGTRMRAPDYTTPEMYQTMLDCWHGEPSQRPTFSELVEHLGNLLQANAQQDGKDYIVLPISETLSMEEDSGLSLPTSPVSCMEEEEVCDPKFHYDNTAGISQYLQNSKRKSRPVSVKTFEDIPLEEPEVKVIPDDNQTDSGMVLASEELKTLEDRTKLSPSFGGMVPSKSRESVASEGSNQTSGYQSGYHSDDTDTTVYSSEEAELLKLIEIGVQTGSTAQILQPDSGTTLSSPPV

His6-TEV-PDGFRβ (557-1016), sequence (P09619 557-1016): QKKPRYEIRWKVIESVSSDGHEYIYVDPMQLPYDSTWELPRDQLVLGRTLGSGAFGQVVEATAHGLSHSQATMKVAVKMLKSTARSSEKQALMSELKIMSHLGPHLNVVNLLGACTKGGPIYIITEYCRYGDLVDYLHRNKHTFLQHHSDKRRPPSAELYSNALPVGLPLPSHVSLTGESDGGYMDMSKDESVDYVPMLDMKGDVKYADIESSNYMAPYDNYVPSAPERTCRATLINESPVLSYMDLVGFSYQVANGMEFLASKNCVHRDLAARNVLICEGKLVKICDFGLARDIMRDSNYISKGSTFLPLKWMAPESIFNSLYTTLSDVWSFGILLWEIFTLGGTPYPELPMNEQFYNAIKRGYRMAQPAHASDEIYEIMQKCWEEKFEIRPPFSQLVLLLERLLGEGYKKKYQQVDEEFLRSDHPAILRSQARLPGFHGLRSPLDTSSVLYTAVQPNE
Tb-labeled inactive PDGFRβ, sequence (P09619 33-1106): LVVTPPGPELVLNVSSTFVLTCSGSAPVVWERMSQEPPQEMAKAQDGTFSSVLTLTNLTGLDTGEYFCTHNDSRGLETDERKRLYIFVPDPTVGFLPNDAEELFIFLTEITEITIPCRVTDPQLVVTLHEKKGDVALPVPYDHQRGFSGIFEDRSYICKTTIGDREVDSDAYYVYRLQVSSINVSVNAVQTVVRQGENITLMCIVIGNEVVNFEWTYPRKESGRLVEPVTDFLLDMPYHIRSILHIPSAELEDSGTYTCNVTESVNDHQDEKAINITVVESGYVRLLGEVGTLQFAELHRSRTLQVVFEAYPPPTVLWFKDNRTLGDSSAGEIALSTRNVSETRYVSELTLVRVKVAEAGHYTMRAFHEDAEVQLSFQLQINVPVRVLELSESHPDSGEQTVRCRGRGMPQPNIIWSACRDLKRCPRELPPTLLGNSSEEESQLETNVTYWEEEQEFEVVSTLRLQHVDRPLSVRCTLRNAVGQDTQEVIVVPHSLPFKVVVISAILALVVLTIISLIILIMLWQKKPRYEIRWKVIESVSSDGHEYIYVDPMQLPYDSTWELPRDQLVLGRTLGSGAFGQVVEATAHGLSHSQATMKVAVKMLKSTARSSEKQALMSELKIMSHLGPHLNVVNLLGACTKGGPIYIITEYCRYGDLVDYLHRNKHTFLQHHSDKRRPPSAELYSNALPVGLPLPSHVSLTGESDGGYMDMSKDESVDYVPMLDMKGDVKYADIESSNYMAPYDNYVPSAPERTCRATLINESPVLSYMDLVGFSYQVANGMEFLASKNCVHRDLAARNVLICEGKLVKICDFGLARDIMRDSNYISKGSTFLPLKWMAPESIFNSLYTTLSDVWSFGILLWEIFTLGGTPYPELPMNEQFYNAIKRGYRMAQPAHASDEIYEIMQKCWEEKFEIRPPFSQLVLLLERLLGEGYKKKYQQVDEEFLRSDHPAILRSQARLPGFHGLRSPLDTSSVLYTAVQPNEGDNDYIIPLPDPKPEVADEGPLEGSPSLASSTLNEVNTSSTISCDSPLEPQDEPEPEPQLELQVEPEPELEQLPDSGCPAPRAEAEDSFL

SMILES: Cc1ncc(C(=O)NCCN2CCCC23CCC3)cc1NC(=O)c1cnn2cc(-c3cnn4c3CCC4)sc12 [Example 461, N-(5-((2-(5-azaspiro[3.4]octan-5-yl)ethyl)carbamoyl)-2-methylpyridin-3-yl)-2-(5,6-dihydro-4H-pyrrolo[1,2-b]pyrazol-3-yl)pyrazolo[5,1-b]thiazole-7-carboxamide]
- IC50 [1]: 0.2 nM
- IC50 [2]: 0.8 nM
- IC50 (VEGFR2, unphosphorylated): 3350 nM

SMILES: Cc1ncc(NC(=O)CNC2CCCC2)cc1NC(=O)c1cnn2cc(-c3cnn4c3OCCC4)sc12 [Example 421, N-(5-(2-(cyclopentylamino)acetamido)-2-methylpyridin-3-yl)-2-(6,7-dihydro-5H-pyrazolo[5,1-b][1,3]oxazin-3-yl)pyrazolo[5,1-b]thiazole-7-carboxamide]
- IC50 [1]: 0.2 nM
- IC50 [2]: 2 nM
- IC50 (VEGFR2, unphosphorylated): > 7500 nM

SMILES: Cc1ncc(C(=O)NCCN2CCCC2(C)C)cc1NC(=O)c1cnn2cc(-c3cnn4c3COCC4)sc12 [Example 450, 2-(6,7-dihydro-4H-pyrazolo[5,1-c][1,4]oxazin-3-yl)-N-(5-((2-(2,2-dimethylpyrrolidin-1-yl)ethyl)carbamoyl)-2-methylpyridin-3-yl)pyrazolo[5,1-b]thiazole-7-carboxamide]
- IC50 [1]: 0.4 nM
- IC50 [2]: 2.4 nM
- IC50 (VEGFR2, unphosphorylated): > 7500 nM

SMILES: Cc1ncc(NC(=O)CC2CN(C)C2)cc1NC(=O)c1cnn2cc(-c3cnn4c3CCC4)sc12 [Example 468, 2-(5,6-dihydro-4H-pyrrolo[1,2-b]pyrazol-3-yl)-N-(2-methyl-5-(2-(1-methylazetidin-3-yl)acetamido)pyridin-3-yl)pyrazolo[5,1-b]thiazole-7-carboxamide]
- IC50 [1]: 2.1 nM
- IC50 [2]: 149 nM
- IC50 (VEGFR2, unphosphorylated): > 7500 nM

SMILES: Cc1ncc(NC(=O)CN2CC(C)(C)C2)cc1NC(=O)c1cnn2cc(-c3cn(C)nc3C)sc12 [Example 430, 2-(1,3-Dimethyl-1H-pyrazol-4-yl)-N-(5-(2-(3,3-dimethylazetidin-1-yl)acetamido)-2-methylpyridin-3-yl)pyrazolo[5,1-b]thiazole-7-carboxamide]
- IC50 [1]: 0.2 nM
- IC50 [2]: 1.8 nM
- IC50 (VEGFR2, unphosphorylated): 5170 nM

SMILES: Cc1ncc(C(=O)NCC2CCCN2C)cc1NC(=O)c1cnn2cc(-c3cnn4c3OCCC4)sc12 (stereo not drawn) [Example 470, 2-(6,7-dihydro-5H-pyrazolo[5,1-b][1,3]oxazin-3-yl)-N-(2-methyl-5-(((1-methylpyrrolidin-2-yl)methyl)carbamoyl)pyridin-3-yl)pyrazolo[5,1-b]thiazole-7-carboxamide]
- IC50 [1]: 0.5 nM
- IC50 [2]: 6.8 nM
- IC50 (VEGFR2, unphosphorylated): > 7500 nM

SMILES: Cc1ncc(NC(=O)CN2CCCC2(C)C)cc1NC(=O)c1cnn2cc(-c3cnn(CCO)c3)sc12 [Example 447, N-(5-(2-(2,2-dimethylpyrrolidin-1-yl)acetamido)-2-methylpyridin-3-yl)-2-(1-(2-hydroxyethyl)-1H-pyrazol-4-yl)pyrazolo[5,1-b]thiazole-7-carboxamide]
- IC50 [1]: 0.5 nM
- IC50 [2]: 3.7 nM
- IC50 (VEGFR2, unphosphorylated): > 7500 nM

SMILES: Cc1ncc(NC(=O)CN2C[C@@H](C)O[C@H](C)C2)cc1NC(=O)c1cnn2cc(-c3cnn(CCS(C)(=O)=O)c3)sc12 (relative stereo) [Example 432, N-(5-(2-(trans-2,6-dimethylmorpholino)acetamido)-2-methylpyridin-3-yl)-2-(1-(2-(methylsulfonyl)ethyl)-1H-pyrazol-4-yl)pyrazolo[5,1-b]thiazole-7-carboxamide]
- IC50 [1]: 1.1 nM
- IC50 [2]: 9.2 nM
- IC50 (VEGFR2, unphosphorylated): > 2500 nM

SMILES: Cc1ncc(C(=O)NCCN2CCCC23CCC3)cc1NC(=O)c1cnn2cc(-c3cnn4c3COCC4)sc12 [Example 472, N-(5-((2-(5-azaspiro[3.4]octan-5-yl)ethyl)carbamoyl)-2-methylpyridin-3-yl)-2-(6,7-dihydro-4H-pyrazolo[5,1-c][1,4]oxazin-3-yl)pyrazolo[5,1-b]thiazole-7-carboxamide]
- IC50 [1]: 0.4 nM
- IC50 [2]: 2.8 nM
- IC50 (VEGFR2, unphosphorylated): > 7500 nM
